Source: patent US6348454B1, “Syntheses of new isodethiaazacephems and isodethiaazacephams, and use as potent antibacterial agents” (National Science Council, priority 1999, dated 2002)
Values after ≈ are worked out from the molar mass of the structure shown. Where two headings read alike, the source gives them in different places.

Legend:
E. coli ATCC 39188 = experiment: Antibacterial activity, serial broth dilution method (MIC); assay type: cell-based; conditions: for MIC: Escherichia coli, read-out: Minimal Inhibitory Concentrations
Method: (§1) Antimicrob. Agents Chemother. 1978, 14, 807-811] penicillin G [Morris, J. J.; Page, M. I. Intra- and Intermolecular Catalysis in the Aminolysis of Benzylpenicillin. J. Chem. Soc., Perkin Trans 2 1980, 212-219], and 7-(β-phenylacetamido)-3′-desacetoxycephalosporanic acid (±)−2 [Page, M. L.; Proctor, P. Mechanism of β-Lactam Opening in Cephalosporins. J. Am. Chem. Soc. 1984, 106, 3820-3825] in vitro against five pathogenic microorganisms. The doses used were as high as 128 μg/mL.
(§2) The serial broth dilution method was used to study the antibiotic activity [Pursiano, T. A.; Misiek, M.; Leitner, F.; Price, K. E. Effect of Assay Medium on the Antibacterial Activity of Certain Penicillins and Cephalosporins. Antimicrob. Agents Chemother. 1973, 3, 33-39]. The inocula were prepared by use of the heart infusion broth (Difco Laboratories) to make 10^−4 dilutions of the overnight cultures. Tubes of the seeded antibiotic-containing media were incubated at 37° C. for 20 h. The lowest concentration of antibiotic that prevented visible growth of microorganisms was then determined.

K. pneumoniae NCTC 418 = experiment: as above; assay type: cell-based; conditions: for MIC: Klebsiella pneumoniae, read-out: Minimal Inhibitory Concentrations
Method: as §1, §2

Ps. aeruginosa 1101-75 = experiment: as above; assay type: cell-based; conditions: for MIC: read-out: Minimal Inhibitory Concentrations
Method: as §1, §2

S. aureus FDA 209P = experiment: as above; assay type: cell-based; conditions: 20 h; for MIC: Staphylococcus aureus, FDA209P, read-out: Minimal Inhibitory Concentrations
Method: as §1, §2

S. typhi O-901 = experiment: as above; assay type: cell-based; conditions: 20 h; for MIC: Salmonella enterica, TYPHI, read-out: Minimal Inhibitory Concentrations; for Minimal Inhibitory Concentrations: S. typhi O-901, average of triplicate determinations, 37° C.
Method: as §1, §2

[1] = tested on: five pathogenic microorganisms; experiment: Antibacterial activity in vitro, summary in words; assay type: cell-based; conditions: doses as high as 128 μg/mL; Table 1
Method: as §1, §2

[2] = Stability of β-lactams in water at various pH; conditions: for time within which pH of the aqueous solution changed to ˜1 (destruction of β-lactam ring): initial pH about 4.0; for time the β-lactam ring survived / time within which β-lactam ring was destructed: pH 1.0
Method: In another series of assays, we dissolved isodethiaazacephems (±)−3 and (±)−4 as well as isodethiaazacepham (±)−5 in distilled water (5.0 mg/mL).

[3] = Pseudomonas aeruginosa, 110175, 20 h
[4] = ATCC39188, E. coli ATCC 39188, average of triplicate determinations, 37° C., 20 h
[5] = NCTC418, K. pneumoniae NCTC 418, average of triplicate determinations, 37° C., 20 h
[6] = Pseudomonas aeruginosa, 110175, Ps. aeruginosa 1101-75, average of triplicate determinations, 37° C., 20 h
[7] = S. aureus FDA 209P, average of triplicate determinations, 37° C.
[8] = E. coli ATCC 39188, average of triplicate determinations, 37° C., 20 h
[9] = K. pneumoniae NCTC 418, average of triplicate determinations, 37° C., 20 h
[10] = Ps. aeruginosa 1101-75, average of triplicate determinations, 37° C., 20 h

Row | Compound | MIC (K. pneumoniae NCTC 418; NCTC418, 20 h) [µg/mL] | MIC (Ps. aeruginosa 1101-75; [3]) [µg/mL] | MIC (S. typhi O-901) [µg/mL] | antibacterial activity (in words) [1] | MIC (E. coli ATCC 39188; [4]) [µg/mL] | MIC (K. pneumoniae NCTC 418; [5]) [µg/mL] | MIC (Ps. aeruginosa 1101-75; [6]) [µg/mL] | MIC (S. aureus FDA 209P; [7]) [µg/mL] | initial pH value of the aqueous solution ([2]; distilled water, 5.0 mg/mL) | melting point [°C] | Minimal Inhibitory Concentrations (S. typhi O-901) [µg/mL] | Minimal Inhibitory Concentrations (E. coli ATCC 39188; [8]) [µg/mL] | Minimal Inhibitory Concentrations (S. aureus FDA 209P; [7]) [µg/mL] | further results
1 | CS(=O)(=O)OC1=C(C(=O)OCc2ccccc2)N2C(=O)[C@@H](NC(=O)Cc3ccccc3)[C@H]2CN1 (racemic) [(±)-11, Benzyl (6RS,7SR)-3-Methanesulfonyloxy-8-oxo-7-(phenylacetamido)-1,4-diazabicyclo[4.2.0]oct-2-ene-2-carboxylate] | > 128 | > 128 | > 128 | do not exhibit antibacterial activity |  |  |  |  |  |  |  |  |  | MIC (E. coli ATCC 39188; ATCC39188, 20 h): > 128 µg/mL; MIC (S. aureus FDA 209P): > 128 µg/mL
2 | CS(=O)(=O)OC1=C(C(=O)O)N2C(=O)[C@@H](NC(=O)Cc3ccccc3)[C@H]2CN1 (racemic) [(±)-3, (6RS,7SR)-3-Methanesulfonyloxy-8-oxo-7-(phenylacetamido)-1,4-diazabicyclo[4.2.0]oct-2-ene-2-carboxylic Acid] |  |  | 1.2 (≈ 3.03 µM) | promising antimicrobial activities | 0.95 (≈ 2.4 µM) | 0.68 (≈ 1.72 µM) | 4.38 (≈ 11.1 µM) | 0.07 (≈ 0.177 µM) | about 4.0 | 115 to 117 |  |  |  | time within which pH of the aqueous solution changed to ˜1 (destruction of β-lactam ring) ([2]; distilled water, 5.0 mg/mL): three; time the β-lactam ring survived [2]: ~4 h; solubility (physchem; water): 21 mg/mL (≈ 53100 µM)
3 | O=C(Cc1ccccc1)N[C@@H]1C(=O)N2C(C(=O)O)=C(OS(=O)(=O)C(F)(F)F)NC[C@H]12 (racemic) [(±)-4, (6RS,7SR)-3-Trifluoromethanesulfonyloxy-8-oxo-7-(phenylacetamido)-1,4-diazabicyclo[4.2.0]oct-2-ene-2-carboxylic Acid] |  |  | 0.68 (≈ 1.51 µM) | promising antimicrobial activities | 0.09 (≈ 0.2 µM) | 0.24 (≈ 0.534 µM) | 1.15 (≈ 2.56 µM) | 0.01 (≈ 0.0223 µM) | about 4.0 | 100 to 102 |  |  |  | time within which pH of the aqueous solution changed to ˜1 (destruction of β-lactam ring) ([2]; distilled water, 5.0 mg/mL): two; time the β-lactam ring survived [2]: ~2 h; solubility (physchem; water): 27 mg/mL (≈ 60100 µM)
4 | CS(=O)(=O)C1=C(O)NC[C@@H]2[C@H](NC(=O)Cc3ccccc3)C(=O)N12 (racemic) [(±)-17, (6RS,7SR)-3-Hydroxy-8-oxo-7-(phenylacetamido)-1,4-diazabicyclo[4.2.0]oct-2-ene-2-methylsulfone] |  |  |  |  |  |  |  |  |  |  | >128 |  |  | time within which β-lactam ring was destructed [2]: two
5 | CO/N=C(\C(=O)N[C@@H]1C(=O)N2C(C(=O)O)=C(COC(C)=O)CS[C@H]12)c1csc(N)n1 [cefotaxime, reference compound] |  |  | 20.3 (≈ 44.6 µM) |  | 0.25 (≈ 0.549 µM) | 10.2 (≈ 22.5 µM) | 62.4 (≈ 137 µM) | 0.08 (≈ 0.176 µM) |  |  |  |  |  | 
6 | O=C(Cc1ccccc1)N[C@@H]1C(=O)N2C(C(=O)OCc3ccccc3)=C(OS(=O)(=O)C(F)(F)F)NC[C@H]12 (racemic) [(±)-12, Benzyl (6RS,7SR)-3-Trifluoromethanesulfonyloxy-8-oxo-7-(phenylacetamido)-1,4-diazabicyclo[4.2.0]oct-2-ene-2-carboxylate] | > 128 | > 128 | > 128 | do not exhibit antibacterial activity |  |  |  |  |  |  |  |  |  | MIC (E. coli ATCC 39188; ATCC39188, 20 h): > 128 µg/mL; MIC (S. aureus FDA 209P): > 128 µg/mL
7 | CC1=C(C(=O)O)N2C(=O)C(NC(=O)Cc3ccccc3)C2SC1 (single isomer, unassigned; (+)) [(+)-2, 7-(β-phenylacetamido)-3′-desacetoxycephalosporanic acid, reference compound] |  |  |  |  |  |  |  |  |  |  | 24.50 | 13.13 | 0.64 | Minimal Inhibitory Concentrations (K. pneumoniae NCTC 418; [9]): 2.98 µg/mL; Minimal Inhibitory Concentrations (Ps. aeruginosa 1101-75; [10]): 100.0 µg/mL
8 | (2RS,6RS,7SR)- and (2SR,6RS,7SR)-2-Methanesulfonyl-3,8-dioxo-7-(phenylacetamido)-1,4-diazabicyclo[4.2.0]octane-2-carboxylic Acid [(±)-5] |  |  |  | profound antibacterial activity |  |  |  |  | about 2.0 |  | 65.30 | 97.17 | 48.50 | Minimal Inhibitory Concentrations (K. pneumoniae NCTC 418; [9]): 51.02 µg/mL; Minimal Inhibitory Concentrations (Ps. aeruginosa 1101-75; [10]): 120.0 µg/mL; time within which β-lactam ring was destructed ([2]; acidic solution): ≤ 3 h; time of decarboxylation ([2]; basic solution, pH 12): ≤ 20 min; time within which pH of aqueous solution changed from 2.0 to 6.0 (decarboxylation to (±)−17) ([2]; distilled water, 5.0 mg/mL): 5-6 days
9 | CC1(C)S[C@@H]2[C@H](NC(=O)Cc3ccccc3)C(=O)N2[C@H]1C(=O)O [penicillin G, reference compound] |  |  |  |  |  |  |  |  |  |  | >128 | 2.30 | 0.40 | 
10 | O=C(Cc1ccccc1)N[C@@H]1C(=O)N2C(C(=O)O)=C(O)NC[C@H]12 (racemic) [(±)-10, (6RS,7SR)-3-Hydroxy-8-oxo-7-(phenylacetamido)-1,4-diazabicyclo[4.2.0]-oct-2-ene-2-carboxylic Acid] | > 128 | > 128 | > 128 |  | 94.7 (≈ 298 µM) |  |  | 29.5 (≈ 93 µM) |  | 140 to 142 |  |  |  | time stable in phosphate buffer ([2]; phosphate buffer (0.10 M, pH 6.8)): two; solubility (physchem; pH 6.8, aqueous buffer): 35 mg/mL (≈ 110000 µM)
